{"source": "paper PMC3522636", "about": "“4F Decreases IRF5 Expression and Activation in Hearts of Tight Skin Mice” (PLoS ONE, 2012)", "key": {"[1]": {"test_system": "Tsk−/+ mice", "assay": "Transthoracic echocardiography, posterior wall thickness / heart function", "type": "in vivo, mouse", "source_text": "All experimental procedures and protocols involving mice were reviewed and approved by the Institutional Animal Care and Use Committee (IACUC) of the Medical College of Wisconsin (AUA#512). They also conformed to the rules in the Guiding Principles in the Care and Use of Animals published by the American Physiologic Society and the Guide for the Care and Use of Laboratory Animals published by OLAW. Male Tsk^−/+ and C57Bl/6J mice (6–8 weeks of age) were purchased from Jackson Laboratories (Bar Harbor, ME). Three groups of mice were studied; C57Bl/6J, Tsk^−/+, and Tsk^−/+ mice treated with 4F (1 mg/kg/d, sc) as published previously.\nTsk^−/+ and C57BL/6J mice (n = 6) were anesthetized by isoflurane inhalation (1.50%) and oxygen. They were place on a warming platform supine position. A VisualSonics Vevo 770 high-resolution imaging system (Toronto, Canada) equipped with a 30-MHz transducer (Scanhead RMV 707) was used to perform the transthoracic echocardiography. Two-dimensional guided M-mode LV dimensions were measured and posterior wall thickness was analyzed."}, "[2]": {"molecular_target": "T1, IRF5 (Homo sapiens, UniProt Q13568)", "T1 construct": "purchased GenScript USA Inc", "T1 sequence (Q13568 1-498)": "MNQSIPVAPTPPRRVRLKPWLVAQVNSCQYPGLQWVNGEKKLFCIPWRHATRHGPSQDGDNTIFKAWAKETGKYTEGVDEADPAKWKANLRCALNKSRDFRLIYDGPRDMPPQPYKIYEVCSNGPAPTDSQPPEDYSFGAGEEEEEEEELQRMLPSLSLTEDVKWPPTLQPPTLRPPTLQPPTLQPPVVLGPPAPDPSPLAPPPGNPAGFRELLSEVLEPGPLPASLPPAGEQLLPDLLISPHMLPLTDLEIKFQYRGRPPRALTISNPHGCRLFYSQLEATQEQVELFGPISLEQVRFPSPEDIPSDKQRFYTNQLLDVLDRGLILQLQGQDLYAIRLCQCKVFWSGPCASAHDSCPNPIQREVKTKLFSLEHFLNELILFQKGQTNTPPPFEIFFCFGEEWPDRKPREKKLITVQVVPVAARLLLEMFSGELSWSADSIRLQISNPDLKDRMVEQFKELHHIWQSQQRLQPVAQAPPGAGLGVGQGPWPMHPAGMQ", "assay": "Biolayer interferometry, 4F binding to B-IRF5", "settings": "B-IRF5 on SA biosensors, Octet Red 96", "experimental": "Biolayer Interferometry (BLI): Protein-protein interactions were determined by BLI using an Octet Red 96™ interferometer (ForteBio, Inc, Menlo Park, CA). IRF5 was purchased (GenScript USA Inc) and labeled with biotin (cat no. 21329, Thermo Fisher Scientific, Rockford, IL) at a ratio of 1∶1, which is optimal for binding and packaging target proteins onto SA biosensors (MR18-0009, ForteBio) for studying protein-protein interactions. Biotin-labeled IRF5 (B-IRF5) was loaded onto SA-biosensors in PBS for 15 minutes to ensure saturation. The B-IRF5-loaded SA biosensors were incubated in PBS containing 4F (20 µg/ml) for 10 minutes and association measured by following increases in wavelength interference. Next the loaded biosensors were incubated in PBS alone for 10 minutes to measure dissociation of 4F from B-IRF5 by following decreases in wavelength interference."}}, "note": "Entries after “also recorded” stand apart in the source; their conditions may differ."}
{"substance": "Ac-DWFKAFYDKVAEKFKEAF-NH2 [4F]", "values": [{"measurement": "posterior wall thickness", "setting": "[1]; 4F 1 mg/kg/d, sc, 6–8 weeks, 4F-treated Tsk−/+ vs untreated Tsk−/+ mice, p<0.05, n = 6, M-mode echocardiography, isoflurane", "result": "significantly increased in Tsk^−/+ compared to C57Bl/6J (control) and Tsk^−/+ mice with 4F treatment; also recorded: significantly higher in the Tsk^−/+ mice compared to C57Bl/6J and Tsk^−/+ mice treated with 4F; also recorded: significantly improved"}, {"measurement": "onset of heart failure", "setting": "[1]; 4F treatment of Tsk−/+ mice (Figure 1)", "result": "appear to delay the onset of heart failure in Tsk^−/+ mice"}, {"measurement": "association with B-IRF5", "setting": "[2]; 4F 20 µg/ml in PBS, 10 minutes", "result": "rapidly associated"}, {"measurement": "association versus dissociation with IRF5", "setting": "[2]; 4F 20 µg/ml", "result": "favoring association over dissociation; also recorded: favors association over dissociation; also recorded: rate of 4F association with IRF5 is faster than their rate of dissociation"}, {"measurement": "dissociation from B-IRF5", "setting": "[2]; PBS alone, 10 minutes", "result": "slow"}]}
